Target: Beta-secretase 1 (Homo sapiens, UniProt P56817)
Assay: Inhibition of recombinant BACE1 (unknown origin) using H-Ile-Lys-Thr-Glu-Glu-Ile-Ser-Glu-Val-Asn-Leu-Asp-Ala-Glu-Phe-Arg-His-Asp-Ser-Gly-NH2 as substrate measured after 90 mins by HPLC analysis

Chain of Beta-secretase 1 (P56817 whole entry): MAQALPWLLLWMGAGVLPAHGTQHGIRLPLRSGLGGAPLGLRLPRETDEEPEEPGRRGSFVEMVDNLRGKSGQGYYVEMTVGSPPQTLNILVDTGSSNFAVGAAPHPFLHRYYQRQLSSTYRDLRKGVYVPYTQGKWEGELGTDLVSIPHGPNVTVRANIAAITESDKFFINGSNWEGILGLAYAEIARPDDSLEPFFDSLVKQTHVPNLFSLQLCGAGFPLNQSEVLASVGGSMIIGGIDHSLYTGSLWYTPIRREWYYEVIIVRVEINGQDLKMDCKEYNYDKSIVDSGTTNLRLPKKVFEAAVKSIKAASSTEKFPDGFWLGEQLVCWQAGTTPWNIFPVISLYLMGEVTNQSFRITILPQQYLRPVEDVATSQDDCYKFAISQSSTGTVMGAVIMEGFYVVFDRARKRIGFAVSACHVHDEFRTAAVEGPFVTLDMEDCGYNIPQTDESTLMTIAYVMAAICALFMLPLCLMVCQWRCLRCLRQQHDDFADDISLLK

IC50: 57 nM
Structure (SMILES): C[C@H]1OC[C@]2(c3cc(NC(=O)c4cnc(C(F)F)cn4)ccc3F)N=C(N)SC[C@H]12 [ELENBECESTAT]
